The values below come from ChEMBL document CHEMBL1152598, “Synthesis and dopaminergic activity of some E-3-(piperidin-1-yl)-1-(4-substituted phenyl)prop-2-en-1-one derivatives” (2009).

In experiment [1] the test system is Rattus norvegicus. Put plainly: Dopaminergic activity in apomorphine-induced Wistar rat assessed as licking count at 30 mg/kg, ip treated 15 mins before apomorphine challenge measured after 10 mins for 60 mins by behavioral study. To be noted: route intraperitoneal.
The test system of experiment [2] is Rattus norvegicus. Put plainly: Dopaminergic activity in apomorphine-induced Wistar rat assessed as licking count at 0.5 mg/kg, iv treated 15 mins before apomorphine challenge measured after 10 mins for 60 mins by behavioral study. It counts as functional.
Experiment [3] relates to Rattus norvegicus. Put plainly: Effect on dopaminergic activity in apomorphine-induced Wistar rat assessed as licking count at 10 to 30 mg/kg, ip treated 15 mins before apomorphine challenge measured after 10 mins for 60 mins by behavioral study.

The source made the active and inactive calls. No cut-off for these calls is given here.

`COc1ccc(C(=O)/C=C/N2CCC(Cc3ccccc3)CC2)c(O)c1`: the Activity in experiment [1] is reported as 520. As for `COc1ccc(C(=O)/C=C/N2CCC(O)(c3ccccc3)CC2)c(O)c1`, the Activity in experiment [1] came out at 1800. On to `O=C(CCCN1CCC(O)(c2ccc(Cl)cc2)CC1)c1ccc(F)cc1` [HALOPERIDOL], for which, in experiment [2], the Activity is 3.667. `O=C(/C=C/N1CCC(Cc2ccccc2)CC1)c1ccc(O)cc1O`: the Activity in experiment [1] turned out to be 618. The same measure, in the same setting: the value for `O=C(/C=C/N1CCC(O)(c2ccc(Br)cc2)CC1)c1ccc(O)cc1O` was 1860.

In the case of `O=C(/C=C/N1CCC(O)(c2ccc(Cl)cc2)CC1)c1ccc(O)cc1O`, the Activity in experiment [1] came out at 115. Besides, the result in experiment [3] was Active.

With `COc1ccc(C(=O)/C=C/N2CCC(O)(c3ccc(Br)cc3)CC2)c(O)c1`, the Activity in experiment [1] was determined as 1140.

`COc1ccc(C(=O)/C=C/N2CCC(c3ccc(O)cc3)CC2)c(O)c1`: in experiment [1], the Activity is listed as 1325. As for `O=C(/C=C/N1CCC(O)(c2ccccc2)CC1)c1ccc(O)cc1O`, in experiment [1], the Activity amounted to 1317. Regarding `COc1ccc(C(=O)/C=C/N2CCC(O)(c3ccc(O)cc3)CC2)c(O)c1`, in experiment [1], the Activity stood at 2675. `O=C(/C=C/N1CCC(O)(c2ccc(O)cc2)CC1)c1ccc(O)cc1O`: in experiment [1], the Activity is given as 1450. On to `O=C(/C=C/N1CCC(c2ccc(O)cc2)CC1)c1ccc(O)cc1O`, for which the Activity in experiment [1] was found to be 664. Regarding `COc1ccc(C(=O)/C=C/N2CCC(O)(c3ccc(Cl)cc3)CC2)c(O)c1`, the Activity in experiment [1] was 1575.
